ChEMBL document CHEMBL4613209, “Quinolone hybrids and their anti-cancer activities: An overview” (Eur J Med Chem, 2019)

What was measured:
Type in all cases: functional, cell-based
[1] = tested on: CAPAN-1; experiment: Cytotoxicity against human Capan1 cells assessed as reduction in cell viability by MTT assay
[2] = tested on: SMMC-7721; experiment: Cytotoxicity against human SMMC7721 cells assessed as reduction in cell viability by MTT assay
[3] = tested on: L1210; experiment: Cytotoxicity against mouse L1210 cells assessed as reduction in cell viability by MTT assay
[4] = tested on: HL-60; experiment: Cytotoxicity against human HL60 cells assessed as reduction in cell viability by MTT assay
[5] = tested on: Hep 3B2; experiment: Cytotoxicity against human Hep3B cells assessed as reduction in cell viability by MTT assay

Row | Structure (SMILES) | IC50 [1] [µM] | IC50 [2] [µM] | IC50 [3] [µM] | IC50 [4] [µM] | IC50 [5] [µM]
1 | CCn1cc(-c2nc(SCc3nnc(-c4ccccc4)o3)n(CN(C)C)n2)c(=O)c2cc(F)c(N3CCN(C)CC3)cc21 | 1.5 to 24.5 | 1.5 to 24.5 | 1.5 to 24.5 | 1.5 to 24.5 | 1.5 to 24.5
2 | CCn1cc(-c2nc(SCc3nnc(-c4ccc(F)cc4)o3)n(CN(C)C)n2)c(=O)c2cc(F)c(N3CCN(C)CC3)cc21 | 1.5 to 5.2 | 1.5 to 5.2 | 1.5 to 5.2 | 1.5 to 5.2 | 1.5 to 5.2
3 | CC1COc2c(N3CCN(C)CC3)c(F)cc3c(=O)c(-c4nc5scc(-c6ccc(O)cc6)n5n4)cn1c23 (configuration not stated) | 3.6 to 56.8 | 3.6 to 56.8 | 3.6 to 56.8 | 3.6 to 56.8 | 3.6 to 56.8
4 | CC1COc2c(N3CCN(C)CC3)c(F)cc3c(=O)c(-c4nnc(SCc5nnc(-c6ccccc6)o5)o4)cn1c23 (configuration not stated) |  | 5.7 to 24.7 | 5.7 to 24.7 | 5.7 to 24.7 | 
5 | CCn1cc(-c2nc3scc(-c4ccccc4)n3n2)c(=O)c2cc(F)c(N3CCN(C)CC3)cc21 | 3.6 to 56.8 | 3.6 to 56.8 | 3.6 to 56.8 | 3.6 to 56.8 | 3.6 to 56.8
6 | CCn1cc(-c2nc(SCc3nnc(-c4ccc(OC)cc4)o3)n(CN(C)C)n2)c(=O)c2cc(F)c(N3CCN(C)CC3)cc21 | 1.5 to 24.5 | 1.5 to 24.5 | 1.5 to 24.5 | 1.5 to 24.5 | 1.5 to 24.5
7 | CC1COc2c(N3CCN(C)CC3)c(F)cc3c(=O)c(-c4nc5scc(-c6ccc(F)cc6)n5n4)cn1c23 (configuration not stated) | 3.6 to 56.8 | 3.6 to 56.8 | 3.6 to 56.8 | 3.6 to 56.8 | 3.6 to 56.8
8 | COc1cc(-c2nnc(CSc3nnc(-c4cn5c6c(c(N7CCN(C)CC7)c(F)cc6c4=O)OCC5C)o3)o2)cc(OC)c1OC (configuration not stated) |  | 5.7 to 24.7 | 5.7 to 24.7 | 5.7 to 24.7 | 
9 | CCn1cc(-c2nc(SCc3nnc(-c4ccc(Cl)cc4)o3)n(CN(C)C)n2)c(=O)c2cc(F)c(N3CCN(C)CC3)cc21 | 1.5 to 24.5 | 1.5 to 24.5 | 1.5 to 24.5 | 1.5 to 24.5 | 1.5 to 24.5
10 | CCn1cc(-c2nnc(SCc3nnc(-c4ccc(OC)cc4)o3)[nH]2)c(=O)c2cc(F)c(N3CCN(C)CC3)cc21 | 3.8 to 35.2 | 3.8 to 35.2 | 3.8 to 35.2 | 3.8 to 35.2 | 3.8 to 35.2
11 | CCn1cc(-c2nc(SCc3nnc(-c4ccc([N+](=O)[O-])cc4)o3)n(CN(C)C)n2)c(=O)c2cc(F)c(N3CCN(C)CC3)cc21 | 1.5 to 24.5 | 1.5 to 24.5 | 1.5 to 24.5 | 1.5 to 24.5 | 1.5 to 24.5
12 | CCn1cc(-c2nnc(SCc3nnc(-c4ccc(OC)c(OC)c4)o3)[nH]2)c(=O)c2cc(F)c(N3CCN(C)CC3)cc21 | 3.8 to 35.2 | 3.8 to 35.2 | 3.8 to 35.2 | 3.8 to 35.2 | 3.8 to 35.2
13 | Cc1ccc(-c2nnc(CSc3nnc(-c4cn(C5CC5)c5cc(N6CCN(C)CC6)c(F)cc5c4=O)o3)o2)cc1 |  | 2.4 to 32.4 | 2.4 to 32.4 | 2.4 to 32.4 | 
14 | CCn1cc(-c2nc3scc(-c4ccccc4O)n3n2)c(=O)c2cc(F)c(N3CCN(C)CC3)cc21 | 3.6 to 56.8 | 3.6 to 56.8 | 3.6 to 56.8 | 3.6 to 56.8 | 3.6 to 56.8
15 | CCn1cc(-c2nnc(SCc3nnc(-c4cc(OC)c(OC)c(OC)c4)o3)[nH]2)c(=O)c2cc(F)c(N3CCN(C)CC3)cc21 | 3.8 to 35.2 | 3.8 to 35.2 | 3.8 to 35.2 | 3.8 to 35.2 | 3.8 to 35.2
16 | CCn1cc(-c2nc3scc(-c4ccccc4OC)n3n2)c(=O)c2cc(F)c(N3CCN(C)CC3)cc21 | 3.6 to 56.8 | 3.6 to 56.8 | 3.6 to 56.8 | 3.6 to 56.8 | 3.6 to 56.8
17 | CCn1cc(-c2nc3scc(-c4ccc([N+](=O)[O-])cc4)n3n2)c(=O)c2cc(F)c(N3CCN(C)CC3)cc21 | 3.6 to 56.8 | 3.6 to 56.8 | 3.6 to 56.8 | 3.6 to 56.8 | 3.6 to 56.8

Row | Structure (SMILES) | IC50 [1] [µM] | IC50 [2] [µM] | IC50 [3] [µM] | IC50 [4] [µM] | IC50 [5] [µM]
18 | CN1CCN(c2cc3c(cc2F)c(=O)c(-c2nnc(SCc4nnc(-c5ccc([N+](=O)[O-])cc5)o4)o2)cn3C2CC2)CC1 |  | 2.4 to 32.4 | 2.4 to 32.4 | 2.4 to 32.4 | 
19 | COc1ccc(-c2csc3nc(-c4cn(C5CC5)c5cc(N6CCN(C)CC6)c(F)cc5c4=O)nn23)cc1 | 3.6 to 56.8 | 3.6 to 56.8 | 3.6 to 56.8 | 3.6 to 56.8 | 3.6 to 56.8
20 | CCn1cc(-c2nc3scc(-c4ccc5c(c4)OCO5)n3n2)c(=O)c2cc(F)c(N3CCN(C)CC3)cc21 | 3.6 to 56.8 | 3.6 to 56.8 | 3.6 to 56.8 | 3.6 to 56.8 | 3.6 to 56.8
21 | CC1COc2c(N3CCN(C)CC3)c(F)cc3c(=O)c(-c4nc5scc(-c6ccc(Cl)cc6)n5n4)cn1c23 (configuration not stated) | 3.6 to 56.8 | 3.6 to 56.8 | 3.6 to 56.8 | 3.6 to 56.8 | 3.6 to 56.8
22 | CC1COc2c(N3CCN(C)CC3)c(F)cc3c(=O)c(-c4nc5scc(-c6ccc([N+](=O)[O-])cc6)n5n4)cn1c23 (configuration not stated) | 3.6 to 56.8 | 3.6 to 56.8 | 3.6 to 56.8 | 3.6 to 56.8 | 3.6 to 56.8
23 | CCn1cc(-c2nc(SCc3nnc(-c4ccccc4OC)o3)n(CN(C)C)n2)c(=O)c2cc(F)c(N3CCN(C)CC3)cc21 | 1.5 to 24.5 | 1.5 to 24.5 | 1.5 to 24.5 | 1.5 to 24.5 | 1.5 to 24.5
24 | Cc1ccc(-c2csc3nc(-c4cn(C5CC5)c5cc(N6CCN(C)CC6)c(F)cc5c4=O)nn23)cc1 | 3.6 to 56.8 | 3.6 to 56.8 | 3.6 to 56.8 | 3.6 to 56.8 | 3.6 to 56.8
25 | CN1CCN(c2cc3c(cc2F)c(=O)c(-c2nc4scc(-c5ccc([N+](=O)[O-])cc5)n4n2)cn3C2CC2)CC1 | 3.6 to 7.6 |  |  | 3.6 to 7.6 | 3.6 to 7.6
26 | CC1COc2c(N3CCN(C)CC3)c(F)cc3c(=O)c(-c4nnc(SCc5nnc(-c6ccc([N+](=O)[O-])cc6)o5)o4)cn1c23 (configuration not stated) |  | 5.7 to 24.7 | 5.7 to 24.7 | 5.7 to 24.7 | 
27 | COc1ccc(-c2nnc(CSc3nnc(-c4cn5c6c(c(N7CCN(C)CC7)c(F)cc6c4=O)OCC5C)o3)o2)cc1 (configuration not stated) |  | 5.7 to 24.7 | 5.7 to 24.7 | 5.7 to 24.7 | 
28 | Cc1ccc(-c2nnc(CSc3nnc(-c4cn5c6c(c(N7CCN(C)CC7)c(F)cc6c4=O)OCC5C)o3)o2)cc1 (configuration not stated) |  | 5.7 to 24.7 | 5.7 to 24.7 | 5.7 to 24.7 | 
29 | COc1ccccc1-c1nnc(CSc2nnc(-c3cn(C4CC4)c4cc(N5CCN(C)CC5)c(F)cc4c3=O)o2)o1 |  | 2.4 to 32.4 | 2.4 to 32.4 | 2.4 to 32.4 | 
30 | CN1CCN(c2cc3c(cc2F)c(=O)c(-c2nnc(SCc4nnc(-c5ccccc5)o4)o2)cn3C2CC2)CC1 |  | 2.4 to 32.4 | 2.4 to 32.4 | 2.4 to 32.4 | 
31 | COc1ccccc1-c1nnc(CSc2nnc(-c3cn4c5c(c(N6CCN(C)CC6)c(F)cc5c3=O)OCC4C)o2)o1 (configuration not stated) |  | 5.7 to 24.7 | 5.7 to 24.7 | 5.7 to 24.7 | 
32 | CC1COc2c(N3CCN(C)CC3)c(F)cc3c(=O)c(-c4nnc(SCc5nnc(-c6ccc(Cl)cc6)o5)o4)cn1c23 (configuration not stated) |  | 5.7 to 24.7 | 5.7 to 24.7 | 5.7 to 24.7 | 
33 | COc1cc(-c2nnc(CSc3nnc(-c4cn(C5CC5)c5cc(N6CCN(C)CC6)c(F)cc5c4=O)o3)o2)cc(OC)c1OC |  | 2.4 to 32.4 | 2.4 to 32.4 | 2.4 to 32.4 | 
34 | CN1CCN(c2cc3c(cc2F)c(=O)c(-c2nnc(SCc4nnc(-c5ccc(Cl)cc5)o4)o2)cn3C2CC2)CC1 |  | 2.4 to 32.4 | 2.4 to 32.4 | 2.4 to 32.4 | 
